# Measurements published in US20200407717A1, “METHODS OF MODULATING ANTISENSE ACTIVITY” (Ionis Pharmaceuticals, Inc., priority 2018, published 2020).
# e = 2'-O-(2-methoxyethyl) (MOE); d = 2'-deoxy (DNA)
# Tested on: Malat1 RNA
# Assay: Antisense activity by RT-qPCR, Malat1, A431 cells
# Type: cell-based
# Description: A431 cells were grown at 10,000 cells per well and pre-treated with a variety of growth factors to determine if the addition of exogenous growth factors affects antisense activity or uptake of modified antisense oligonucleotides in a cell. The growth factors used were EGF, insulin growth factor (IGF), transforming growth factor (TGF), […] (VEGF), hepatocyte growth factor (HGF), platelet growth factor (PGF) and fibroblasts growth factor (FGF). To test antisense activity, cells were treated for 4 hours with a growth factor or vehicle alone, and then treated with compound no. 25690 (complementary to Drosha), compound no. 395254 (complementary to Malat1), or vehicle alone. RNA was isolated from the cells and Drosha or Malat1 RNA levels were measured by RT-qPCR. Human primer probe set 13816 (forward sequence […], designated herein as SEQ ID NO: 3; reverse sequence […], designated herein as SEQ ID NO: 4; probe sequence […], designated herein as SEQ ID NO: 5) was used to measure Drosha mRNA levels and primer probe set RTS2736 (forward sequence […], designated herein as SEQ ID NO: 6; reverse sequence […], designated herein as SEQ ID NO: 7; probe sequence TGCCACATCGCCACCCCGT, designated herein as SEQ ID NO: 8) was used to measure Malat1 RNA levels. Drosha and Malat1 RNA levels were normalized to total RNA content, as measured by RIBOGREEN®. Results are presented in the tables below as normalized RNA levels, relative to untreated control cells.
# A431 cells were treated with EGF or TGF at 200 ng/mL in the presence or absence of 1 μM of the EGFR tyrosine kinase inhibitor PD174265. The cells were then treated with compound no. 25690 or compound no. 395254 as in Example 8. Total RNA was isolated and analyzed by RT-qPCR, as in Example 8.
# Following siRNA treatment, cells were treated with compound no. 25690 or compound no. 395254 in the presence or absence of EGF. 16 hours after treatment with a PS-ASO with or without EGF, cells were harvested, and RNA levels were analyzed via RT-qPCR as in Example 8.
sequence,measurement,setting,value
"GGCATATGCAGATAATGTTC (sugars from the 5' end e5 d10 e5, all phosphorothioate, methylation of C not given here) [compound 395254]",Malat1 RNA (% Control),"125 nM, EGFR siRNA-2",26.6 % Control
same,Malat1 RNA (% Control),"125 nM, EGFR siRNA-2 + EGF",55.2 % Control
same,Malat1 RNA (% Control),"125 nM, EGFR siRNA-2, Table 27",53.1 % Control
same,Malat1 RNA (% Control),"125 nM, TGF",74.4 % Control
same,Malat1 RNA (% Control),"125 nM, TGF+PD174265",47.0 % Control
same,Malat1 RNA (% Control),"125 nM, TGF, Table 21",33.1 % Control
same,Malat1 RNA (% Control),"250 nM, Control",74.0 % Control
same,Malat1 RNA (% Control),"250 nM, Control Luciferase siRNA",16.3 % Control
same,Malat1 RNA (% Control),"250 nM, Control Luciferase siRNA, Table 27",27.6 % Control
same,Malat1 RNA (% Control),"250 nM, Control luciferase + EGF",24.9 % Control
same,Malat1 RNA (% Control),"250 nM, Control, Table 21",37.6 % Control
same,Malat1 RNA (% Control),"250 nM, EGF",43.6 % Control
same,Malat1 RNA (% Control),"250 nM, EGFR siRNA-1",19.7 % Control
same,Malat1 RNA (% Control),"250 nM, EGFR siRNA-2",21.5 % Control
same,Malat1 RNA (% Control),"250 nM, EGFR siRNA-2 + EGF",34.0 % Control
same,Malat1 RNA (% Control),"250 nM, EGFR siRNA-2, Table 27",29.7 % Control
same,Malat1 RNA (% Control),"250 nM, TGF",29.4 % Control
same,Malat1 RNA (% Control),"250 nM, TGF+PD174265",34.9 % Control
same,Malat1 RNA (% Control),"250 nM, TGF, Table 21",19.7 % Control
same,Malat1 RNA (% Control),"500 nM, Control",44.5 % Control
same,Malat1 RNA (% Control),"500 nM, Control Luciferase siRNA",11.9 % Control
same,Malat1 RNA (% Control),"500 nM, Control Luciferase siRNA, Table 27",18.9 % Control
same,Malat1 RNA (% Control),"500 nM, Control luciferase + EGF",17.1 % Control
same,Malat1 RNA (% Control),"500 nM, Control, Table 21",28.9 % Control
same,Malat1 RNA (% Control),"500 nM, EGF",26.1 % Control
same,Malat1 RNA (% Control),"500 nM, EGFR siRNA-1",16.9 % Control
same,Malat1 RNA (% Control),"500 nM, EGFR siRNA-2",15.1 % Control
same,Malat1 RNA (% Control),"500 nM, EGFR siRNA-2 + EGF",24.6 % Control
same,Malat1 RNA (% Control),"500 nM, EGFR siRNA-2, Table 27",23.4 % Control
same,Malat1 RNA (% Control),"500 nM, TGF",27.9 % Control
same,Malat1 RNA (% Control),"500 nM, TGF+PD174265",27.1 % Control
same,Malat1 RNA (% Control),"500 nM, TGF, Table 21",13.5 % Control
same,Malat1 RNA (% Control),"1000 nM, Control",27.0 % Control
same,Malat1 RNA (% Control),"1000 nM, Control Luciferase siRNA",7.9 % Control
same,Malat1 RNA (% Control),"1000 nM, Control Luciferase siRNA, Table 27",18.2 % Control
same,Malat1 RNA (% Control),"1000 nM, Control luciferase + EGF",15.2 % Control
same,Malat1 RNA (% Control),"1000 nM, Control, Table 21",15.2 % Control
same,Malat1 RNA (% Control),"1000 nM, EGF",15.1 % Control
same,Malat1 RNA (% Control),"1000 nM, EGFR siRNA-1",11.3 % Control
same,Malat1 RNA (% Control),"1000 nM, EGFR siRNA-2",12.7 % Control
same,Malat1 RNA (% Control),"1000 nM, EGFR siRNA-2 + EGF",21.4 % Control
same,Malat1 RNA (% Control),"1000 nM, EGFR siRNA-2, Table 27",17.2 % Control
same,Malat1 RNA (% Control),"1000 nM, TGF",14.2 % Control
same,Malat1 RNA (% Control),"1000 nM, TGF+PD174265",21.2 % Control
same,Malat1 RNA (% Control),"1000 nM, TGF, Table 21",7.2 % Control
same,Malat1 RNA (% Control),"2000 nM, Control",24.1 % Control
same,Malat1 RNA (% Control),"2000 nM, Control Luciferase siRNA",7.6 % Control
same,Malat1 RNA (% Control),"2000 nM, Control Luciferase siRNA, Table 27",15.2 % Control
same,Malat1 RNA (% Control),"2000 nM, Control luciferase + EGF",10.2 % Control
same,Malat1 RNA (% Control),"2000 nM, Control, Table 21",11.2 % Control
same,Malat1 RNA (% Control),"2000 nM, EGF",9.9 % Control
same,Malat1 RNA (% Control),"2000 nM, EGFR siRNA-1",10.2 % Control
same,Malat1 RNA (% Control),"2000 nM, EGFR siRNA-2",11.0 % Control
same,Malat1 RNA (% Control),"2000 nM, EGFR siRNA-2 + EGF",18.3 % Control
same,Malat1 RNA (% Control),"2000 nM, EGFR siRNA-2, Table 27",15.2 % Control
same,Malat1 RNA (% Control),"2000 nM, TGF",9.5 % Control
same,Malat1 RNA (% Control),"2000 nM, TGF+PD174265",10.2 % Control
same,Malat1 RNA (% Control),"2000 nM, TGF, Table 21",5.2 % Control
same,Malat1 RNA (% Control),"4000 nM, Control",17.9 % Control
same,Malat1 RNA (% Control),"4000 nM, Control Luciferase siRNA",1.3 % Control
same,Malat1 RNA (% Control),"4000 nM, Control Luciferase siRNA, Table 27",11.2 % Control
same,Malat1 RNA (% Control),"4000 nM, Control luciferase + EGF",7.2 % Control
same,Malat1 RNA (% Control),"4000 nM, Control, Table 21",7.2 % Control
same,Malat1 RNA (% Control),"4000 nM, EGF",10.3 % Control
same,Malat1 RNA (% Control),"4000 nM, EGFR siRNA-1",7.8 % Control
same,Malat1 RNA (% Control),"4000 nM, EGFR siRNA-2",11.1 % Control
same,Malat1 RNA (% Control),"4000 nM, EGFR siRNA-2 + EGF",17.2 % Control
same,Malat1 RNA (% Control),"4000 nM, EGFR siRNA-2, Table 27",15.2 % Control
same,Malat1 RNA (% Control),"4000 nM, TGF",11.6 % Control
same,Malat1 RNA (% Control),"4000 nM, TGF+PD174265",7.2 % Control
same,Malat1 RNA (% Control),"4000 nM, TGF, Table 21",5.7 % Control
same,IC50,"Control (no growth factor), Table 16",36 ± 3.2 nM
same,IC50,"Control Luciferase siRNA, Table 25",46 ± 5.3 nM
same,IC50,"Control Luciferase siRNA, Table 27",49 ± 6.3 nM
same,IC50,"Control luciferase + EGF, Table 27",26 ± 2.4 nM
same,IC50,"Control, Table 21",50 ± 7 nM
same,IC50,"EGF pre-treatment 4 hours, Table 16",15 ± 3 nM
same,IC50,"EGFR siRNA-1, Table 25",86 ± 9.3 nM
same,IC50,"EGFR siRNA-2 + EGF, Table 27",87 ± 4.2 nM
same,IC50,"EGFR siRNA-2, Table 25",100 ± 9.7 nM
same,IC50,"EGFR siRNA-2, Table 27",89 ± 5.9 nM
same,IC50,"TGF 200 ng/mL + 1 μM PD174265, Table 21",56 ± 8.1 nM
same,IC50,"TGF 200 ng/mL, Table 21",21 ± 4 nM
same,IC50,"TGF pre-treatment 4 hours, Table 16",13 ± 2.1 nM
same,"half maximal inhibitory concentration, Malat1","cells treated with IGF, FGF, HGF, VEGF or PGF relative to PS-ASO alone (data not shown)",unchanged
